From US20250195530A1, “POLQ INHIBITORS” (ASTRAZENECA AB, priority 2022, published 2025) come the findings set out here.

Each structure is given as a SMILES string. Read-outs that look alike come from different tables or passages of the source. Some results are limits rather than exact numbers.

One test deals with DLD-1 BRCA2−/− cells. Nature of the test: Homologous recombination synthetic lethal inhibition of proliferation, DLD-1 BRCA2-/- (Cell Titre Glo 3D). The class given is cell-based. The note with it: for IC50: Homo sapiens. In short, it runs like this: (§1)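 Cells are seeded in RPMI 1640 (phenol red free, 10% FBS, GlutaMAX) onto pre-dosed compound (10 μM to 0.51 nM, three-fold). Plates are incubated at 37 °C, and medium plus compound are refreshed on day 6. Viability is read by CellTiter-Glo 3D at day 7 (DLD-1) or day 12 (DLD-1 BRCA2−/−), and the IC50 is fitted.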

The subject of another test is DLD-1 cells. Nature of the test: Inhibition of proliferation, DLD-1 BRCA2 wt control (Cell Titre Glo 3D). The class given is cell-based. The settings on record: for IC50: Homo sapiens. The gist of the method: as §1
[1] abbreviates: DLD-1, 288 h, DLD-1 BRCA2−/− cells, 12 days, read-out: POLQ PD Prolif Lumin BRCA2 −/− mean pIC50 (converted).
The mark [2] stands for this setting: DLD-1, 168 h, DLD-1 BRCA2 wt cells, 7 days, read-out: POLQ PD Prolif Lumin DLD1 mean pIC50 (converted).
The mark [3] stands for this setting: DLD-1, DLD-1 BRCA2 −/−, mean, read-out: POLQ PD Prolif Lumin BRCA2 −/− mean pIC50 (converted).
Setting [4] is: DLD-1, DLD1 BRCA2 wt, mean, read-out: POLQ PD Prolif Lumin DLD1 mean pIC50 (converted).

In the case of `CC(CCOc1ccc(-c2nc3c(OC4(C)CC4)ncnc3n2Cc2cccc(Br)c2)c(Cl)c1)C(=O)O` (racemic) [Example T279, 4-(4-(9-(3-bromobenzyl)-6-(1-methylcyclopropoxy)-9H-purin-8-yl)-3-chlorophenoxy)-2-methylbutanoic acid], the IC50 with DLD-1 BRCA2−/− cells (DLD-1, DLD-1 BRCA2-/- proliferation, column head only partly shown, read-out: POLQ PD Prolif Lumin (converted)) is 200 nM; with DLD-1 cells (DLD-1, DLD-1 BRCA2 wt control proliferation, column head only partly shown, read-out: POLQ PD Prolif Lumin (converted)) it was greater than 10000 nM.
Take `Cc1cc(OCCN2CCNCC2)ncc1-c1nc2c(OC3(C)CC3)ncnc2n1Cc1ccccc1Cl` [Example J5, 9-(2-chlorobenzyl)-8-(4-methyl-6-(2-(piperazin-1-yl)ethoxy)pyridin-3-yl)-6-(1-methylcyclopropoxy)-9H-purine]: the results for the IC50 in the test on DLD-1 BRCA2−/− cells (setting [1]) and in the test with DLD-1 cells (setting [2]) were 1000 nM and greater than 10000 nM, respectively.
Regarding `COc1ccc(Cl)cc1Cn1c(-c2cccc(OCC[C@H](C)C(=O)O)c2Cl)nc2c(OC3(C)CC3)ncnc21` [Example U73, (S)-4-(2-chloro-3-(9-(5-chloro-2-methoxybenzyl)-6-(1-methylcyclopropoxy)-9H-purin-8-yl)phenoxy)-2-methylbutanoic acid], the IC50 was 2 nM in the test with DLD-1 BRCA2−/− cells (setting [3]) and greater than 10000 nM in the test on DLD-1 cells (setting [4]).
For `COc1ccc(F)cc1Cn1c(-c2ccc(OCC[C@@H](C)C(=O)O)cc2Cl)nc2c(OC3(C)CC3)ncnc21` [Example U67, (R)-4-(3-chloro-4-(9-(5-fluoro-2-methoxybenzyl)-6-(1-methylcyclopropoxy)-9H-purin-8-yl)phenoxy)-2-methylbutanoic acid], the IC50 in the test with DLD-1 BRCA2−/− cells (setting [3]) is 50.1 nM; in the test with DLD-1 cells (setting [4]), greater than 10000 nM.
On to `CC1(Oc2cccc3c2nc(-c2ccc(OCCN4CCNCC4)cc2Cl)n3Cc2cc(Cl)ccn2)CC1` [Example 15, 2-(2-chloro-4-(2-(piperazin-1-yl)ethoxy)phenyl)-1-((4-chloropyridin-2-yl)methyl)-4-(1-methylcyclopropoxy)-1H-benzo[d]imidazole], for which the IC50 with DLD-1 BRCA2−/− cells (setting [1]) was 251 nM; with DLD-1 cells (setting [2]), 6310 nM.
Take `CC1(Oc2cccc3c2nc(-c2ccc(OCCN4CCNCC4)cc2Cl)n3Cc2ccccn2)CCC1` [Example P1, 2-(2-chloro-4-(2-(piperazin-1-yl)ethoxy)phenyl)-4-(1-methylcyclobutoxy)-1-(pyridin-2-ylmethyl)-1H-benzo[d]imidazole]: the IC50 in the test on DLD-1 BRCA2−/− cells (setting [1]) is 1260 nM; with DLD-1 cells (setting [2]) it was greater than 10000 nM.
With `Cc1cnc(Cn2c(-c3ccc(OC4CCCNCC4)cc3Cl)nc3c(OC4(C)CC4)ncnc32)s1` (single isomer, unassigned) [Example T243, 2-((8-(4-(azepan-4-yloxy)-2-chlorophenyl)-6-(1-methylcyclopropoxy)-9H-purin-9-yl)methyl)-5-methylthiazole], the “POLQ PD Prolif Lumin” value with DLD-1 BRCA2−/− cells (DLD-1 BRCA2-/- proliferation, column head only partly shown) is on record as 6.3; with DLD-1 cells (DLD-1 BRCA2 wt control proliferation, column head only partly shown), less than 5.0.
In the case of `CC1(Oc2ncnc3c2nc(-c2ccc(OCCN4CCNCC4)cc2Cl)n3Cc2ncccc2Cl)CC1` [Example K5, 8-(2-chloro-4-(2-(piperazin-1-yl)ethoxy)phenyl)-9-((3-chloropyridin-2-yl)methyl)-6-(1-methylcyclopropoxy)-9H-purine], the IC50 was 2510 nM in the test on DLD-1 BRCA2−/− cells (setting [1]) and greater than 10000 nM in the test on DLD-1 cells (setting [2]).
For the compound `C[C@@H](CCOc1ccc(-c2nc3c(OC4(C)CC4)ncnc3n2Cc2cccc(Cl)c2)c(Cl)c1)C(=O)NCC(=O)O` [Example U86, (S)-(4-(3-chloro-4-(9-(3-chlorobenzyl)-6-(1-methylcyclopropoxy)-9H-purin-8-yl)phenoxy)-2-methylbutanoyl)glycine], the IC50 in the test with DLD-1 BRCA2−/− cells (setting [3]) is 2510 nM; in the test with DLD-1 cells (setting [4]) it was greater than 10000 nM.
On to `CC1(Oc2ncnc3c2nc(-c2ccc(OCCN4CC(O)C4)cc2Cl)n3Cc2ccccc2)CC1` [Example H14, 1-(2-(4-(9-benzyl-6-(1-methylcyclopropoxy)-9H-purin-8-yl)-3-chlorophenoxy)ethyl)azetidin-3-ol], for which the IC50 is 126 nM in the test with DLD-1 BRCA2−/− cells (setting [1]) and 6310 nM in the test with DLD-1 cells (setting [2]).
`Cc1ccnc(Cn2c(-c3ccc(N4CCCC4=O)cc3Cl)nc3c(OC4(C)CC4)ncnc32)c1` [Example T171, 1-(3-chloro-4-(6-(1-methylcyclopropoxy)-9-((4-methylpyridin-2-yl)methyl)-9H-purin-8-yl)phenyl)pyrrolidin-2-one]: the IC50 is 158 nM in the test on DLD-1 BRCA2−/− cells (DLD-1, first proliferation column (c5), DLD-1 BRCA2-/-, read-out: POLQ PD Prolif Lumin (converted)) and greater than 10000 nM in the test on DLD-1 cells (DLD-1, second proliferation column (c6), DLD-1 BRCA2 wt control, read-out: POLQ PD Prolif Lumin (converted)).
Turning to `CC1(Oc2ncnc3c2nc(-c2cccc(OCCOCC(=O)O)c2Cl)n3Cc2cc(Cl)ccc2F)CC1` [Example U22, 2-(2-(2-chloro-3-(9-(5-chloro-2-fluorobenzyl)-6-(1-methylcyclopropoxy)-9H-purin-8-yl)phenoxy)ethoxy)acetic acid], the IC50 in the test with DLD-1 BRCA2−/− cells (setting [3]) was 50.1 nM; in the test on DLD-1 cells (setting [4]) it was greater than 10000 nM.
As for `CC1(Oc2ncnc3c2nc(-c2ccc(OCCN4CCNCC4)cc2Cl)n3Cc2ccccc2)CCC1` [Example 12, 9-Benzyl-8-(2-chloro-4-(2-(piperazin-1-yl)ethoxy)phenyl)-6-(1-methylcyclobutoxy)-9H-purine], the IC50 is 126 nM with DLD-1 BRCA2−/− cells (setting [1]) and 2000 nM with DLD-1 cells (setting [2]).
`COc1c(OCCN2CCNCC2)ccc(-c2nc3c(OC4(C)CC4)ncnc3n2Cc2ccccc2)c1Cl` [Example J3, 9-benzyl-8-(2-chloro-3-methoxy-4-(2-(piperazin-1-yl)ethoxy)phenyl)-6-(1-methylcyclopropoxy)-9H-purine]: the IC50 in the test with DLD-1 BRCA2−/− cells (setting [1]) was 501 nM; in the test on DLD-1 cells (setting [2]) it was 3160 nM.
For the compound `Cc1cc(OCCCN)ncc1-c1nc2c(OC3(C)CC3)ncnc2n1Cc1ccccc1` [Example G9, 3-((5-(9-benzyl-6-(1-methylcyclopropoxy)-9H-purin-8-yl)-4-methylpyridin-2-yl)oxy)propan-1-amine], the IC50 in the test on DLD-1 BRCA2−/− cells (setting [1]) is 794 nM; in the test with DLD-1 cells (setting [2]), 1580 nM.
With `C#CC1(Oc2ncnc3c2nc(-c2ccc(OCCN4CCNCC4)cc2Cl)n3Cc2ccccc2)CCC1` [Example Q3, 9-benzyl-8-(2-chloro-4-(2-(piperazin-1-yl)ethoxy)phenyl)-6-(1-ethynylcyclobutoxy)-9H-purine], the results for the IC50 in the test with DLD-1 BRCA2−/− cells (setting [1]) and in the test with DLD-1 cells (setting [2]) were 251 nM and 5010 nM, respectively.
In the case of `COc1ccc(Cl)cc1Cn1c(-c2cccc(O[C@H]3C[C@@H](C(=O)O)C3)c2Cl)nc2c(OC3(C)CC3)ncnc21` [Example 52, (1s,3s)-3-(2-chloro-3-(9-(5-chloro-2-methoxybenzyl)-6-(1-methylcyclopropoxy)-9H-purin-8-yl)phenoxy)cyclobutane-1-carboxylic acid], the IC50 in the test with DLD-1 BRCA2−/− cells (DLD-1, 288 h, DLD-1 BRCA2−/−, 12 days, Cell Titre Glo 3D, read-out: POLQ PD Prolif Lumin BRCA2 −/− Mean pIC50 (converted)) was 12.6 nM; with DLD-1 cells (DLD-1, 168 h, DLD-1 (BRCA2 wt control), 7 days, Cell Titre Glo 3D, read-out: POLQ PD Prolif Lumin DLD1 Mean pIC50 (converted)), greater than 10000 nM.
`Cc1ccnc(Cn2c(-c3ccc(CC(=O)N4C[C@@H](O)[C@H](F)C4)cc3Cl)nc3c(OC4(C)CC4)ncnc32)c1` [Example T422, 2-(3-chloro-4-(6-(1-methylcyclopropoxy)-9-((4-methylpyridin-2-yl)methyl)-9H-purin-8-yl)phenyl)-1-((3R,4R)-3-fluoro-4-hydroxypyrrolidin-1-yl)ethan-1-one]: the IC50 in the test with DLD-1 BRCA2−/− cells (DLD-1, proliferation, luminescence, taken as DLD-1 BRCA2-/-, read-out: POLQ PD Prolif Lumin (converted)) was 1000 nM; in the test with DLD-1 cells (DLD-1, proliferation, luminescence, second Prolif column (c6), taken as DLD-1 BRCA2 wt control, read-out: POLQ PD Prolif Lumin (converted)), greater than 10000 nM.
Take `CC(C)Oc1ccc2c(c1)nc(-c1ccc(OCCCN)cc1Cl)n2Cc1ccccc1` [Example 3, 3-(4-(1-Benzyl-5-isopropoxy-1H-benzo[d]imidazol-2-yl)-3-chlorophenoxy)propan-1-amine]: the IC50 in the test on DLD-1 BRCA2−/− cells (setting [1]) was 1000 nM; in the test with DLD-1 cells (setting [2]), 1580 nM.
For `CC1(Oc2ncnc3c2nc(-c2ccc(OCCC(=O)O)cc2Cl)n3Cc2cccc(Cl)c2Cl)CC1` [Example T85, 3-(3-chloro-4-(9-(2,3-dichlorobenzyl)-6-(1-methylcyclopropoxy)-9H-purin-8-yl)phenoxy)propanoic acid], the IC50 in the test on DLD-1 BRCA2−/− cells (DLD-1, DLD-1 BRCA2 −/− cells, mean, read-out: POLQ PD Prolif Lumin BRCA2 −/− mean pIC50 (converted)) is 794 nM; in the test with DLD-1 cells (DLD-1, DLD1 BRCA2 wt cells, mean, read-out: POLQ PD Prolif Lumin DLD1 mean PIC50 (converted)) it was greater than 10000 nM.
In the case of `CC1(Oc2ncnc3c2nc(-c2ccc(OCCN4CCNCC4)cc2Cl)n3Cc2cccc(C#N)n2)CC1` [Example K9, 6-((8-(2-chloro-4-(2-(piperazin-1-yl)ethoxy)phenyl)-6-(1-methylcyclopropoxy)-9H-purin-9-yl)methyl)picolinonitrile], the IC50 is 1580 nM in the test on DLD-1 BRCA2−/− cells (setting [1]) and greater than 10000 nM with DLD-1 cells (setting [2]).
Take `C[C@H](CCOc1cccc(-c2nc3c(OC4(C)CC4)ncnc3n2Cc2cc(Cl)ccc2F)c1Cl)C(=O)O` [Example U26, (R)-4-(2-chloro-3-(9-(5-chloro-2-fluorobenzyl)-6-(1-methylcyclopropoxy)-9H-purin-8-yl)phenoxy)-2-methylbutanoic acid]: the IC50 with DLD-1 BRCA2−/− cells (setting [3]) is 25.1 nM; with DLD-1 cells (setting [4]), greater than 10000 nM.
As for `N#CC1(Oc2ncnc3c2nc(-c2ccc(OCCN4CCNCC4)cc2Cl)n3Cc2cccc(Cl)c2)CC1` [Example Q5, 1-((8-(2-chloro-4-(2-(piperazin-1-yl)ethoxy)phenyl)-9-(3-chlorobenzyl)-9H-purin-6-yl)oxy)cyclopropane-1-carbonitrile], the IC50 was 158 nM in the test on DLD-1 BRCA2−/− cells (setting [1]) and 6310 nM with DLD-1 cells (setting [2]).
